Assay results reported in patent US20240277899A1, “PRODUCTION METHOD OF MYOCARDIAL CELL LAYER, MYOCARDIAL CELL LAYER, AND USE THEREOF” (FUJIFILM Corporation, priority 2021, published 2024).
Where two headings read alike, the source gives them in different places.

Tested on: myocardial cell layer of myocardial cell C (iCell Cardiomyocytes^2, purity 80%)
Assay: Drug screening: electrical signal of spontaneous beating of the myocardial cell layer measured by MEA (QT interval, beat rate, cardiotoxicity)
Conditions: for myocardial beat rate reaction, TW compared with Control: TW layer versus Control layer; for myocardial beat rate on addition of the drug: MEA 5 minutes after adding drug, Day 17
Experimental: iCell (registered trademark) Cardiomyocytes^2 was thawed according to “iCell Cardiomyocytes^2 User's Guide” to prepare myocardial cells C (purity of the myocardial cells 100%). In addition, myocardium-derived fibroblasts (NHCF-V human cardiac fibroblasts, Lonza, CC-2904) were added to the myocardial cells C to prepare myocardial cells with a purity of 25%, 50%, and 75%, respectively. Each of the prepared myocardial cells was dispersed at 1×10^6 cells/cm^2 and scattered on the seeding surface of the cells of the culture container 3 prepared in Example 1 to form a myocardial cell layer. The cells were cultured in the same manner as in Example 2, a beating frequency was measured, and stability of the TW was evaluated.
Using the myocardial cell C (the myocardial cell with a purity of 80%, which was obtained in the same manner as in Example 4) and the above-described culture container 3 (biodegradable fiber material), a myocardial cell layer was formed in the same manner as in Example 4. […] In addition, the beating frequency was measured up to Day 14 (TW). As a control, the beating frequency was measured in the same manner for those (Control) in which the TW was stopped by exchanging the culture medium with a culture medium at 4° C. on Day 2.
A culture container 3 (biodegradable fiber material) was created in the same manner as in Example 10. In addition, a culture container 3 (PC) was created in the same manner as for the culture container 3 (biodegradable fiber material), using polycarbonate (PC) porous membrane (Thermo Fisher Scientific, Inc., Nunc™ Polycarbonate Cell Culture Cell Inserts in Multi-Well Plates 140644) as a scaffold material. A myocardial cell layer was formed in the same manner as in Example 2, using the myocardial cells B, the culture container 3 (biodegradable fiber material), and the culture container 3 (PC). […] After Day 14, the electrical signal of myocardial spontaneous beating was measured by MEA by stopping the TW by exchanging the culture medium with a culture medium at 4° C. Specifically, data of extracellular Field Potentials (FPs) was recorded on a multielectrode array (MEA) system (USB-ME64-System, Multi Channel Systems, Germany).
A culture container 3 (biodegradable fiber material) was created in the same manner as in Example 10. Using the myocardial cell C (the myocardial cell with a purity of 80%, which was obtained in the same manner as in Example 4) and the above-described culture container 3 (biodegradable fiber material), a myocardial cell layer was formed in the same manner as in Example 4. Those in which the generated TW was stably maintained up to Day 14 (TW), and those in which TW was stopped by exchanging the culture medium with a culture medium at 4° C. on Day 2 (Control), that is, a total of two kinds were produced.

## CC(=O)Oc1ccccc1C(=O)O [aspirin]
  QT interval as the concentration increased: decreased
  QT interval extension, TW compared with Control: almost the same
MEA 5 minutes after drug
  myocardial beat rate reaction, TW compared with Control: almost the same

## CC(C)NCC(O)c1ccc(O)c(O)c1 (centres unmarked) [isoproterenol]
  myocardial beat rate on addition of the drug: increased
MEA 5 minutes after drug
  myocardial beat rate reaction, TW compared with Control: more sensitive in reaction to isoproterenol as compared with Control

## Cc1cccc(C)c1OCC(C)N (centres unmarked) [mexiletine]
TW layer (TW maintained up to Day 14) versus Control layer (TW stopped on Day 2), MEA 5 minutes after drug
  QT interval extension, TW compared with Control: smaller than Control

## COc1ccc(CCN(C)CCCC(C#N)(c2ccc(OC)c(OC)c2)C(C)C)cc1OC (centres unmarked) [verapamil]
  myocardial beat rate on addition of the drug: increased
MEA 5 minutes after drug
  myocardial beat rate reaction, TW compared with Control: more sensitive in reaction to verapamil as compared with Control
